The text below walks through data of publication PMC4663795, “Alkanols inhibit voltage-gated K^+ channels via a distinct gating modifying mechanism that prevents gate opening” (Scientific Reports, 2015).

Structures are written as SMILES. Several values for one entry are separate records, joined by “and”; a condition that tells them apart may be missing. Equal entries are not always repeated. Where two headings read alike, the source gives them in different places.

One experiment has as its target T1, Shaker-IR channel (Drosophila melanogaster, UniProt P08510, DEL6-46).
T1 construct: expressed in transfected cells; host or cells: HEK293
The experiment in a line: cell-based. As to conditions: for GV curve V1/2: voltage dependence of gate opening; for IC50: normalized steady-state IK amplitude at 0 mV, Hill fit, read-out: IC50 of ionic current (IK) inhibition; for Hill coefficient of IK inhibition concentration-response curve: steady-state IK at 0 mV. Type of experiment: cell-based. The source says:
(§1) The N-terminal deletion Δ6–46 Shaker clone (Shaker-IR), which removes fast inactivation, was used in this study. The W434F mutation, which yields a non-conducting Shaker-IR-W434F channel, and the P475A mutation were introduced as described previously. All channel constructs were expressed using a pGW1 expression vector. The plasmid that codes for the green fluorescent protein, used to identify transfected cells, was purchased from Clontech (Palo Alto, CA, USA). Plasmid DNA for mammalian expression was obtained by amplification in XL2 Bluescript cells (Stratagene), and afterwards isolated using the endotoxin-free Maxiprep kit (Macherey-Nagel, Düren, Germany). The cDNA concentration was determined by UV absorption.
(§2) HEK293 cells were cultured in Modified Eagle’s Medium (MEM) supplemented with 10% fetal bovine serum, 1% penicillin/streptomycin and 1% non-essential amino acids (Invitrogen, Carlsbad, CA, USA). Cells were transiently transfected with the appropriate channel DNA plasmids using polyethyleneimine that was purchased from Sigma-Aldrich (St Louis, MO, USA), details of procedure was described previously.
(§3) Whole-cell ionic IK or gating IG current measurements were done at room temperature (20 to 23 °C) using an Axopatch-200B amplifier and the recordings were digitized with a Digidata-1200 A acquisition system (Molecular Devices, Sunnyvale, CA, USA). Both IK and IG recordings were digitized at 10 kHz sampling rate after passing a 5 KHz Bessel low-pass filter. Command voltages and data storage were controlled with pClamp10 software. Patch pipettes were pulled from 1.2 mm quick-fill borosilicate glass capillaries (World Precision Instruments, Sarasota, FL, USA) with a P-2000 puller (Sutter Instrument Co., Novato, CA, USA) and afterwards heat-polished, to have patch pipettes with a resistance of approximately 1.5 MOhm determined with the filled pipette in the bath solution.
(§4) For IK measurements the cells were constantly superfused with external bath solution that contained (in mM) NaCl 130, KCl 4, CaCl2 1.8, MgCl2 1, HEPES 10, Glucose 10, adjusted to pH 7.35 with NaOH. The patch pipettes were filled with internal solution containing (in mM) KCl 110, K4BAPTA 5, K2ATP 5, MgCl2 1, HEPES 10, adjusted to pH 7.2 with KOH. For IG measurements the monovalent cations were replaced with N-methyl-D-glucamine (NMG^+). The bath solution contained (in mM) NMG^+ 140, HEPES 10, Glucose 10, MgCl2 1, CaCl2 1.8, titrated to pH 7.35 with HCl. The pipette solution contained (in mM) NMG^+ 140, HEPES 10, EGTA 10, MgCl2 1, titrated to pH 7.2 with HCl. Junction potentials were zeroed with the filled pipette in the bath solution and experiments were excluded from analysis if the voltage error estimate exceeded 5 mV after series resistance compensation. For IG measurements, leak currents and remaining capacitive currents were subtracted online using a −P/6 protocol (using a holding potential of −95 mV). IK recordings were not leak corrected.
(§5) For the highest concentration of 1-BuOH tested (300 mM), the osmolarity of the extracellular solution for IK or IG recordings increased by approximately 300 mOsm resulting in a total osmolarity of ~640 mOsm. […] All compounds were applied to the cells using a pressurized fast perfusion system equipped with a quartz micromanifold (ALA scientific, Farmingdale, NY, USA), allowing rapid exchange of the external solutions.
(§6) Details of pulse protocols used to elicit IK or IG recordings were adjusted to determine the biophysical properties of each construct adequately and are shown in the figures or described in legends. All the graphs were built using SigmaPlot 11.0 (Systat Software Inc., San Jose, CA, USA).

The target of experiment [1] is T2, Shaker-IR-P475A (Drosophila melanogaster, UniProt P08510, DEL6-46/P475A).
T2 construct: expressed in transfected cells; host or cells: HEK293
Kind of experiment: cell-based. Format: cell-based. The settings on record: for GV curve V1/2: from tail currents; for Hill coefficient of weighted τIKac concentration-response curve / IC50: weighted τIKac at +100 mV; for IC50: read-out: IC50 of acceleration of weighted τIKac.
Excerpt: as §1, §2, §3, §4, §5, §6

The target in experiment [2] is T3, Shaker-IR-W434F (Drosophila melanogaster, UniProt P08510, DEL6-46/W434F).
T3 construct: expressed in transfected cells; host or cells: HEK293
Kind of experiment: cell-based. Type of experiment: cell-based. The settings on record: for QV curve V1/2: voltage dependence of VSD movement; for gating charge immobilized (reduction in gating charge movement): general statement, no concentration given.
Excerpt: as §1, §2, §3, §4, §5, §6

The target in the next experiment is T4, Shaker-IR-W434F-P475A (Drosophila melanogaster, UniProt P08510, DEL6-46/P475A/W434F).
T4 construct: expressed in transfected cells; host or cells: HEK293
Format: cell-based.
Excerpt: as §1, §2, §3, §4, §5, §6

Experiment [3] concerns the target T3, Shaker-IR-W434F. Further details: method as in PMID 11463634. The settings on record: cited from earlier work.
Experiment [4] concerns the target T2, Shaker-IR-P475A. As to conditions: cited from earlier work.
Setting [5] is: integrated steady-state IGac normalized to control, read-out: IC50 of reduction in total gating charge.
Where [6] appears, read: weighted τIGdeac at −90 mV, read-out: IC50 of acceleration of VSD deactivation time constant (τIGdeac).

T1 sequence (P08510 other isoform, or with tags, fused parts or gaps DEL6-46): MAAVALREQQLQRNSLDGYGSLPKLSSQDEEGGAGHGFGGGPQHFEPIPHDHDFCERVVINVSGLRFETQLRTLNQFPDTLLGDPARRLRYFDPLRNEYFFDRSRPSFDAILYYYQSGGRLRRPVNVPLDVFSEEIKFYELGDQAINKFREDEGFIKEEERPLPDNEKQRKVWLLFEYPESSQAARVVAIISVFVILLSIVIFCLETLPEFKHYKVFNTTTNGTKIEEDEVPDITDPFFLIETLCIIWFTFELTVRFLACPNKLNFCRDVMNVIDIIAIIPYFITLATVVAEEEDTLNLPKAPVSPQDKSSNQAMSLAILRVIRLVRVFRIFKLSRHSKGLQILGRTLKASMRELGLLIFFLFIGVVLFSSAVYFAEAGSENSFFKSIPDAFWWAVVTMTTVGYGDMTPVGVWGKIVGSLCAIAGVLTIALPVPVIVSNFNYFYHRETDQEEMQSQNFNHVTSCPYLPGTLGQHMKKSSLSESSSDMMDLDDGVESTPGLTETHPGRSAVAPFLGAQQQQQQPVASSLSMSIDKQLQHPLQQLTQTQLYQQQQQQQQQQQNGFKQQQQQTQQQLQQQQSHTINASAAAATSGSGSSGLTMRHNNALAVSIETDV
T4 sequence (P08510 other isoform, or with tags, fused parts or gaps DEL6-46/W434F/P475A): as the sequence (P08510 other isoform, or with tags, fused parts or gaps DEL6-46) above, with W393F, P434A counted along it
T2 sequence (P08510 other isoform, or with tags, fused parts or gaps DEL6-46/P475A): as the sequence (P08510 other isoform, or with tags, fused parts or gaps DEL6-46) above, with P434A counted along it
T3 sequence (P08510 other isoform, or with tags, fused parts or gaps DEL6-46/W434F): as the sequence (P08510 other isoform, or with tags, fused parts or gaps DEL6-46) above, with W393F counted along it

For `CCCCO` [1-BuOH, 1-Butanol], on Shaker-IR channel (50 mM 1-BuOH), the “GV curve slope factor k” value is listed as 5.1 ± 0.7 mV and the “GV curve V1/2” value is recorded as −28.5 ± 2.3 mV. In addition, the “time constant of current recovery upon wash-out” value on Shaker-IR channel (after 50 mM 1-BuOH) was 7.6 ± 2.1 s. The “time constant of development of IK inhibition” value at Shaker-IR channel (application of 50 mM 1-BuOH) is given as 5.2 ± 1.2 s. Moreover, on Shaker-IR channel, the IC50 is ~50 mM and 50 mM and 51.8 mM; the “Hill coefficient of IK inhibition concentration-response curve” value is on record as 0.92 ± 0.04. Besides, on Shaker-IR-P475A [1], the “effect on IK of the P475A mutant” value was “concentration-dependent increase in IK”, the “Hill coefficient of weighted τIKac concentration-response curve” value is recorded as 1.5 ± 0.4 and the IC50 amounted to 58.8 ± 3 mM. Further, on Shaker-IR-P475A [1] (100 mM 1-BuOH), the “GV curve slope factor k” value was 9.6 ± 0.4 mV and the “GV curve V1/2” value is 62 ± 1 mV. Also, on Shaker-IR-P475A [1] (300 mM 1-BuOH), the “GV curve slope factor k” value is reported as 6.8 ± 0.7 mV and the “GV curve V1/2” value was 50 ± 1 mV. For the same compound, at Shaker-IR-W434F [2], the “Hill coefficient of gating charge reduction concentration-response curve” value is given as 1.5 ± 0.2 and the “gating charge immobilized (reduction in gating charge movement)” value is reported as 10%. Besides, at Shaker-IR-W434F [2] (300 mM 1-BuOH), the “maximal reduction in charge movement” value is “approximately 10%”, the “τIGdeac at −120 mV” value was found to be 0.48 ± 0.08 ms and the “QV curve V1/2” value is −32.4 ± 3.4 mV. For the same compound, the “extra reduction of gating charge movement on addition to 4-AP” value on Shaker-IR-W434F [2] (300 mM 1-BuOH in continued presence of 1 mM 4-AP) is on record as “did not result in an extra reduction of gating charge movement”. For the same compound, the IC50 on Shaker-IR-W434F [2] (setting [5]) came to 88 ± 2 mM. In addition, the “Hill coefficient of τIGdeac concentration-response curve” value at Shaker-IR-W434F [2] (weighted τIGdeac at −90 mV) turned out to be 1.3 ± 0.4. For the same compound, on Shaker-IR-W434F [2] (setting [6]), the IC50 is 67 ± 1 mM. In addition, on Shaker-IR-W434F-P475A (300 mM 1-BuOH), the “QV curve 1st comp V1/2” value is given as −39.2 ± 1.4 mV, the “QV curve 1st comp k” value turned out to be 16.2 ± 1.2 mV, the “QV curve 2nd comp V1/2” value worked out at 52.2 ± 1.2 mV and the “QV curve 2nd comp k” value is given as 9.1 ± 1.1 mV.
Consider `CCCCCCO` [1-HeOH, 1-Hexanol], for which, at Shaker-IR channel (3 mM 1-HeOH), the “GV curve slope factor k” value came out at 7.5 ± 0.9 mV and the “GV curve V1/2” value was −25.4 ± 1.2 mV. The “time constant of current recovery upon wash-out” value on Shaker-IR channel (after 3 mM 1-HeOH) turned out to be 4.8 ± 1.7 s. Moreover, at Shaker-IR channel (application of 3 mM 1-HeOH), the “time constant of development of IK inhibition” value is listed as 3.7 ± 0.7 s. Also, at Shaker-IR channel, the IC50 is ~3 mM and 2.7 mM; the “Hill coefficient of IK inhibition concentration-response curve” value is reported as 1.13 ± 0.22. Moreover, at Shaker-IR-P475A [1], the “effect on IK of the P475A mutant” value is on record as “concentration-dependent increase in IK”, the “Hill coefficient of weighted τIKac concentration-response curve” value is reported as 1.3 ± 0.3 and the IC50 was determined as 4.6 ± 0.8 mM. Besides, at Shaker-IR-P475A [1] (10 mM 1-HeOH), the “GV curve slope factor k” value turned out to be 10.7 ± 0.6 mV and the “GV curve V1/2” value turned out to be 64 ± 1 mV. Moreover, on Shaker-IR-P475A [1] (30 mM 1-HeOH), the “GV curve slope factor k” value is 6.6 ± 0.6 mV and the “GV curve V1/2” value was determined as 49 ± 1 mV. Moreover, on Shaker-IR-W434F [2], the “Hill coefficient of gating charge reduction concentration-response curve” value stood at 1.5 ± 0.2 and the “gating charge immobilized (reduction in gating charge movement)” value was determined as 10%. For the same compound, at Shaker-IR-W434F [2] (30 mM 1-HeOH), the “maximal reduction in charge movement” value is given as around 12%, the “τIGdeac at −120 mV” value is 0.53 ± 0.10 ms and the “QV curve V1/2” value was −31.4 ± 0.9 mV. In addition, the IC50 on Shaker-IR-W434F [2] (setting [5]) was 13.8 ± 1.6 mM. Also, at Shaker-IR-W434F [2] (weighted τIGdeac at −90 mV), the “Hill coefficient of τIGdeac concentration-response curve” value was 1.6 ± 0.3. Also, on Shaker-IR-W434F [2] (setting [6]), the IC50 is 3 ± 0.4 mM. Moreover, on Shaker-IR-W434F-P475A (30 mM 1-HeOH), the “QV curve 1st comp V1/2” value is reported as −35.3 ± 1.5 mV, the “QV curve 2nd comp V1/2” value came to 50.2 ± 1.1 mV and the “QV curve 2nd comp k” value is reported as 3.6 ± 1.4 mV.
As to `Nc1ccncc1` [4-AP, 4-aminopyridine], the inhibition at 30 µM on Shaker-IR channel (HEK293, read-out: steady-state IK inhibition) was around 50%. On Shaker-IR-W434F [2] (1 mM 4-AP), the “loss of gating charge movement” value is on record as “approximately 10%”. On Shaker-IR-W434F [3], the “reduction in gating charge movement” value is on record as 10%. The “sensitivity of the P475A mutant to the drug” value on Shaker-IR-P475A [4] was “insensitive”.

By inhibition is commonly meant how much of the control response was suppressed.
